According to patent US20230011916A1, “METHODS OF CANCER TREATMENT USING ANTI-OX40 ANTIBODIES IN COMBINATION WITH PI3 KINASE DELTA INHIBITORS” (BEIGENE, LTD., priority 2019, published 2023):

Columns and labels:
Assay type in all cases: in vivo, mouse
EMT-6 cells = assay: EMT-6 syngeneic breast cancer model in BALB/c mice
Experimental: EMT-6 cells are of murine breast cancer origin. Female BALB/c mice were implanted intramammary with 5×10^4 EMT-6 cells per 100 μL PBS mice in the second right papilla. After inoculation, mice were randomized into 4 groups with 25 animals in each group according to inoculation order.
The mice were treated with vehicle (0.5% MC), OX86 (a murine specific anti-OX40 antibody), Compound 1 (PI3Kdelta inhibitor), and the combination of OX86 and Compound 1, respectively. OX86 was given at 0.4 mg/kg once per week (QW) by intraperitoneal (i.p.) injection, and Compound 1 was administered at 30 mg/kg twice per day (BID) by oral gavage (p.o.). Tumor volume was determined twice weekly and tumor growth inhibition was determined using the formula described in Example 14 above.

A20 cells = assay: A20 syngeneic B cell lymphoma model in BALB/c mice; settings: Compound 1 10 mg/kg p.o.
Experimental: A20 cells are of B cell lymphoma origin. Female BALB/c mice were subcutaneously implanted with 1×10^5 A20 cells in 150 μL PBS mice in the right flank. After inoculation, mice were randomized into 4 groups with 25 animals in each group according to inoculation order. The mice were treated with vehicle (0.5% MC), OX86 (a murine specific anti-OX40 antibody), Compound 1, and the combination of OX86 and Compound 1. OX86 was given at 0.4 mg/kg once a week by intraperitoneal injection, and Compound 1 was administered at 10 mg/kg twice a day by oral gavage. Tumor volume was determined twice weekly and the TGI calculated as described above.

CT26WT cells = assay: CT26WT syngeneic colon carcinoma model in BALB/c mice; settings: Compound 2A 10 mg/kg p.o.
Experimental: CT26WT cells are of colon cancer origin. Female BALB/c mice were subcutaneously implanted with 1×10^5 CT26WT cells in 100 μL PBS in the right flank. After inoculation, mice were randomized into 4 groups according to inoculation order. The mice were treated with vehicle (0.5% MC) as a control. Antibody 1A7.grl (sequence disclosed in US2015/0307617) was confirmed to bind mouse OX40 in house.
[…] Compound 2A was administered as single agent at 10 mg/kg twice a day by oral gavage. The 1A7.gr1 antibody in combination with Compound 2A was administered as combination therapy at the same doses described above for each therapeutic given as a single agent. Tumor volume was determined twice weekly, and the TGI calculated as described above.

[1] = OX86 0.4 mg/kg QW i.p., Compound 1 30 mg/kg BID p.o.

SMILES: Cc1nc([C@@H](C)c2cc(Cl)c(F)c(C(=O)NCCN3CCN(C)CC3)c2OC(C)C)n2ccnc(N)c12 [Compound 1, (S)-3-(1-(8-amino-1-methylimidazo[1,5-a]pyrazin-3-yl)ethyl)-5-chloro-6-fluoro-2-isopropoxy-N-(2-(4-methylpiperazin-1-yl)ethyl)benzamide]
- Mean Tumor Volume on Day 22 (mean ± SEM) (EMT-6 cells; [1]): 758.1 ± 100.6 mm^3
- Tumor Free Animal (EMT-6 cells; [1]): 4%
- TGI on Day 22 (EMT-6 cells; OX86 0.4 mg/kg QW×4 i.p., Compound 1 30 mg/kg BID×22 p.o.): 26%
- Mean Tumor Volume on Day 26 (mean ± SEM) (A20 cells; OX86 0.4 mg/kg QW i.p.): 683.9 ± 89.7 mm^3
- Tumor Free Animals at Day 47 (A20 cells; OX86 0.4 mg/kg QW i.p.): 0%
- TGI on Day 26 (A20 cells; OX86 0.4 mg/kg QW×4 i.p.): 7%

SMILES: CC(C)Oc1c([C@H](C)c2nc(Cl)c3c(N)nccn23)cc(Cl)c(F)c1-c1ccc(C(F)(F)F)nc1 [Compound 2A, 1-chloro-3-(1-(5-chloro-4-fluoro-2-isopropoxy-3-(6-(trifluoromethyl)pyridin-3-yl)phenyl)ethyl) imidazo[1,5-a]pyrazin-8-amine]
- Mean Tumor Volume on Day 25 (mean ± SEM) (CT26WT cells; 1A7.gr1 2 mg/kg QW i.p.): 941.6 ± 207.8 mm^3
- Tumor Free Animals at Day 35 (CT26WT cells; 1A7.gr1 2 mg/kg QW i.p.): 7%
- TGI on Day 25 (CT26WT cells; 1A7.gr1 2 mg/kg QW×4 i.p.): 58%
